System: Balb/c mice with cisplatin-induced cachexia
Assay: Skeletal muscle function test in cisplatin-treated Balb/c mice
Format: in vivo
Details: oral paeoniflorin
Protocol: The animal experiments were performed in accordance with internationally accepted principles for laboratory animal use and care, and the corresponding study protocol was reviewed and approved by the Institutional Animal Care and Use Committee (IACUC) at Chung-Ang University (approval #2021-00022). Four-week-old female C57BL/6 mice and Balb/c mice were purchased from Raonbio Inc. (Yongin, Korea) and were provided with standard laboratory diet and water ad libitum in the animal facility of Chung-Ang University. After a week of acclimation, the mice were intraperitoneally injected three times with 3 mg/kg/day cisplatin, suspended in 200 μL saline, every other day. […]
A skeletal muscle function test was conducted one day before euthanasia. Muscle strength of each mouse was measured by the grip strength of front paws, and endurance of each mouse was measured by treadmill running time until exhaustion. Motor coordination was measured by retention time on a rotating cylinder with a diameter of 3 cm (Castro and Kuang, 2017). The grip strength of each mouse was measured using a grip strength meter (Bio-GS3, Bioseb, Vitrolles, France). The treadmill running time of each mouse was measured on a treadmill (Exer-3/6, Columbus Instruments, […], USA). The ability of each mouse to stay on a rotating cylinder was measured using a rotarod apparatus (Panlab, Barcelona, Spain).

C[C@@]12C[C@@]3(O)O[C@@H](O1)[C@]1(COC(=O)c4ccccc4)[C@H]3C[C@@]12O[C@@H]1O[C@H](CO)[C@@H](O)[C@H](O)[C@H]1O [paeoniflorin]
muscle strength (FIG. 4A): similarly restored
endurance (FIG. 4B): similarly restored
